Test results: publication PMC11477134 (International Journal of Molecular Sciences, 2024)
Like-named read-outs stand apart in the source and are kept apart here.

Legend:
hBACE1 = biological target: T1, hBACE1 (Homo sapiens, UniProt P56817); assay: hBACE1 inhibitory activity (FRET assay) and enzyme kinetics; format: biochemical
T1 construct: purchased Invitrogen (Pan Vera, Madison, WI, USA)
Experimental: The FRET-based assay was used to evaluate the anti-hBACE1 activity and was performed according to the manufacturer’s instructions. […] The percentage BACE1 inhibitory activity was calculated using the following formula:Inhibition (%) = [1 − (S − S0)/(C − C0)] × 100(1) where C is the control fluorescence without the sample after 60 min of incubation, C0 is the control fluorescence at time 0, S is the test sample fluorescence after 60 min of incubation, and S0 is the test sample fluorescence at time 0.
(§1) Dixon plots were obtained in the presence of different concentrations of substrates for AD-related target enzymes. Michaelis–Menten and Lineweaver–Burk plots were constructed in the absence or presence of various concentrations of honokiol.

AChE = AChE (Homo sapiens, UniProt P22303); details: Dixon and Lineweaver–Burk plots
Chain of AChE (P22303 32-614): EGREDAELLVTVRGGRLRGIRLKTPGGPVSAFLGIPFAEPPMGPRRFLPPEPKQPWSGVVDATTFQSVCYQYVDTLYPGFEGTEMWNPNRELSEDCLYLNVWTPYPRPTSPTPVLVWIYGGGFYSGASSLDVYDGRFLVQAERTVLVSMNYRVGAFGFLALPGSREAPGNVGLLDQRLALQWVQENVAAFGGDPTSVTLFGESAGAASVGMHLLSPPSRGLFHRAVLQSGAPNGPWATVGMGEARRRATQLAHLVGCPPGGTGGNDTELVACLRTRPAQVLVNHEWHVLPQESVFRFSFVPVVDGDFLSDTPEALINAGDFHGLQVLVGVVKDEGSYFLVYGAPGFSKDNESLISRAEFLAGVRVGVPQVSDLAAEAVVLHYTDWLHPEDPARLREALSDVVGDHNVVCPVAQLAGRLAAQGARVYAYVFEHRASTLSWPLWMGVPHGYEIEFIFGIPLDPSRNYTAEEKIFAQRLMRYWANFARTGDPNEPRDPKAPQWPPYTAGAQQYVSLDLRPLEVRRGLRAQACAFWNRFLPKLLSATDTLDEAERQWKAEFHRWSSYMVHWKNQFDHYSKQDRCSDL
Experimental: The AChE inhibitory activity was measured spectrophotometrically using the modified Ellman method. First, AChE (0.8 U/mL) was added to a mixture containing sodium phosphate buffer (0.1 M; pH 8.0), DTNB (5 mM), and a test sample, followed by incubation at 37 °C for 15 min in 96-well microplates. Next, ACTI (500 µM; substrate for AChE) was added to the mixture to activate the reaction.
as §1

hQC = biological target: T2, hQC (Homo sapiens, UniProt Q16769); assay: hQC inhibitory activity (fluorometric assay) and enzyme kinetics; format: biochemical
T2 construct: purchased R&D Systems (Minneapolis, MN, USA)
T2 sequence (Q16769 29-361): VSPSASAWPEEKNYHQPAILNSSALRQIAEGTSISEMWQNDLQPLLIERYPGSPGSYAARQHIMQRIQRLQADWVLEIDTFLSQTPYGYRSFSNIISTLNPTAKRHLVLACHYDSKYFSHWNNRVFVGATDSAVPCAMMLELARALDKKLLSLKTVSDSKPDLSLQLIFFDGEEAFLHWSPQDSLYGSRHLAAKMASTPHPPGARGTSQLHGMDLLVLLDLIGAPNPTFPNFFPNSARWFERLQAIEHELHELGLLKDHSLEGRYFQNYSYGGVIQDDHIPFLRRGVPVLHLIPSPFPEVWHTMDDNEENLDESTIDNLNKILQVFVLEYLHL
Experimental: The inhibitory activity of hQC was evaluated using H-Gln-AMC hydrobromide (400 μM) as the substrate in a fluorometric assay. The buffer consisted of 25 mM HEPES (pH 7.0; adjusted with HCl). The hQC (10 μg/mL) and its auxiliary enzyme pGAPase (50 units) were pre-diluted 1:250 in HEPES. A typical reaction mixture consisted of the substrate, test compounds, and pGAPase. After incubation in black 96-well plates for 10 min at 37 °C, the reaction was initiated by adding hQC solution. The fluorescence intensity of the samples was measured at excitation/emission wavelengths of 380/460 nm, which correlated with the amount of AMC, the end product of the enzymatic process.
(§2) Dixon plots were obtained in the presence of different concentrations of substrates for AD-related target enzymes. Michaelis–Menten and Lineweaver–Burk plots were constructed in the absence or presence of various concentrations of honokiol. The Enzyme Kinetic™ module of SigmaPlot™ version 12.3 (Systat Software, Inc., San Jose, CA, USA) was used to calculate kinetic parameters, such as the Ki, Vmax, and Km.

hGSK-3β = biological target: T3, hGSK-3β (Homo sapiens, UniProt P49841); assay: hGSK-3β activity (ADP-Glo/Kinase-Glo assay) and enzyme kinetics; format: biochemical
T3 construct: purchased Promega (Madison, WI, USA)
T3 sequence (P49841 whole entry): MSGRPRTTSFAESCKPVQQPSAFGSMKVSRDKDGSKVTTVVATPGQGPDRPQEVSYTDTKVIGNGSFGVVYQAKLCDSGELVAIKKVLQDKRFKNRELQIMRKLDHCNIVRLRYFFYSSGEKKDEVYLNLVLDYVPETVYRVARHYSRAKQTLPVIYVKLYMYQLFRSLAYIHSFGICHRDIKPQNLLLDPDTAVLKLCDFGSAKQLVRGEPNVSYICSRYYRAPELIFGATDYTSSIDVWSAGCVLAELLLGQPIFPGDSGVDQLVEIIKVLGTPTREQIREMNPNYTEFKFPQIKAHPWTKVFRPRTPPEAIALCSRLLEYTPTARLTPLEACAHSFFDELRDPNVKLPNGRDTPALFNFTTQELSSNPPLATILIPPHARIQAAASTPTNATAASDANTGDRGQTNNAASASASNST
Experimental: Inhibition of hGSK-3β activity was evaluated using the Kinase-Glo assay. To initiate the reaction, test compound and hGSK-3β (20 ng) were added to each well of a 384-well black plate, followed by the addition of 20 μL of assay buffer containing GSM (hGSK-3β substrate peptide, 25 μM) and ATP (final concentration, 1 μM). […] The reaction mixture was then incubated at 37 °C for 30 min, followed by the addition of the ADP-GloTM reagent (20 μL) to terminate the enzymatic reaction and deplete the remaining ATP. The kinase detection reagent was added to the well plate and glow-type luminescence was recorded using a Synergy H1 microplate reader.
as §2

[1] = set-up: method as in PMID 29925102; details: use of honokiol or herbal formulations containing it; cited from earlier work
Aβ1-42 = Aβ1-42 (Homo sapiens, UniProt P05067); assay: Anti-Aβ1-42 aggregation (preliminary study); format: biochemical; details: compared with honokiol
Chain of Aβ1-42 (P05067 672-713 limits assumed): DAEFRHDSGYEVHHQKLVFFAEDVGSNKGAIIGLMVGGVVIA

[2] = Dixon and Lineweaver–Burk plots
[3] = mean ± S.D. of triplicate experiments, read-out: IC50 hQC
[4] = mean ± S.D. of triplicate experiments, read-out: IC50 hGSK-3β

T1 sequence (P56817 46-501): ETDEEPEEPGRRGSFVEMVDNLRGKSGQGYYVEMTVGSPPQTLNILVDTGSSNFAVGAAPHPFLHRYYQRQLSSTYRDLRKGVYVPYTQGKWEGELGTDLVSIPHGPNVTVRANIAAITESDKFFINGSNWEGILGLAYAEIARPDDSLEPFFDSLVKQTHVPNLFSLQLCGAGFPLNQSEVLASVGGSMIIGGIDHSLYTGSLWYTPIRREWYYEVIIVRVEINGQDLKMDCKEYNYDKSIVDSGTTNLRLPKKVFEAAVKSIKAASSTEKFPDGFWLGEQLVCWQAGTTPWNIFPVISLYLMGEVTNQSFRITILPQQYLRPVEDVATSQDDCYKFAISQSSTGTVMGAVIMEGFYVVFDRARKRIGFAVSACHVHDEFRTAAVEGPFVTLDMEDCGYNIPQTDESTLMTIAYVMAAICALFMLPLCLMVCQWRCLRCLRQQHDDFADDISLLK

In the case of C=CCc1ccc(O)c(-c2ccc(O)c(CC=C)c2)c1 [Honokiol (39), 3,5′-diallyl-4,2′-dihydroxybiphenyl], the IC50 (hBACE1) is reported as 20.6 ± 0.8 µM, the Ki (hBACE1) is reported as 27.3 µM and the “Inhibition Mode hBACE1” value (hBACE1; [2]) is reported as “Non-competitive”. For the same compound, the “Inhibition Mode AChE” value (AChE) was “Non-competitive”, the IC50 (hQC) was 90.7 ± 1.07 µM and the Ki (hQC) was 49.4 µM. The “Inhibition Mode hQC” value (hQC; [2]) was “Competitive”, the IC50 (hGSK-3β) was 6.7 ± 0.03 µM and the Ki (hGSK-3β) was 9.8 µM. For the same compound, the “Inhibition Mode hGSK-3β” value (hGSK-3β; [2]) was “Non-competitive” and the “side effects in humans” value [1] was “no side effects have been reported in humans”.

With C=CCc1ccc(O)c(-c2cc(CC=C)ccc2O)c1 [Magnolol (51), 5,5′-diallyl-2,2′-dihydroxybiphenyl] the IC50 (hBACE1; mean ± S.D. of triplicate experiments, read-out: IC50 hBACE1) was over 100 µM, the IC50 (hQC; [3]) was over 100 µM and the IC50 (hGSK-3β; [4]) was over 100 µM. The anti-Aβ1-42 aggregation effects (Aβ1-42) was “lower anti-Aβ1-42 aggregation effects than that of honokiol”.

Oc1ccc(/C=C/c2cc(O)cc(O)c2)cc1 [resveratrol, reference compound] gave an IC50 (hQC; [3]) of 30.9 µM.

Compound C[C@@H]1O[C@@H](OC[C@H]2O[C@@H](Oc3c(-c4ccc(O)c(O)c4)oc4cc(O)cc(O)c4c3=O)[C@H](O)[C@@H](O)[C@@H]2O)[C@H](O)[C@H](O)[C@H]1O [rutin, reference compound] has an IC50 (hGSK-3β; [4]) of 10.8 µM.
